Data taken from patent US6461997B1, “Triazole sulfones having herbicidal activity” (Monsanto Technology LLC, priority 1999, dated 2002).

What was measured:
soybean (GLYMX) = experiment: Selectivity test, PPI, warm season crop; type: in vivo, Glycine max; details: PPI application
Experimental: (§1) A pre-prepared topsoil mixture (described above) was placed in a pot and compacted to a depth of 1.0 to 1.25 cm from the top of the pot. Seeds of each of several monocotyledonous and dicotyledonous annual plant species were placed on top of the soil. A sufficient quantity of soil to cover the seeds and level fill the pot was weighed into an open container. A known amount of the test compound was dissolved or suspended in an organic solvent and applied by spraying to this cover soil. The cover soil was thoroughly mixed to distribute the test compound throughout the cover soil, and was then applied as a cover layer over the seeds. Untreated soil was used as a cover layer for control pots. After treatment the plants were placed in a greenhouse where they received 0.64 cm of overhead irrigation. All subsequent watering consisted of a light overhead mist and/or subirrigation as needed for germination and growth. Tables 9 and 10 below relate to warm season plant species which were placed after pre-emergence treatment in a greenhouse with a 30/21° C. day/night temperature regime. Tables 11 and 12 below relates to cool season plant species placed after pre-emergence treatment in a greenhouse or growth chamber with an 18/13° C. day/night temperature regime. Only the compounds of Examples 1, 6, 8, 11, 13 and 15-20 were included in PPI tests.
(§2) Approximately 14 days after planting and treating, the plants were observed and herbicidal efficacy recorded as percent inhibition by comparison with untreated plants.
Additional pre-emergence and PPI tests were conducted by the procedures described above, on warm and cool season weed species in the presence of crop species, to assess herbicidal selectivity. Crop species included in warm season tests were corn (Zea mays, ZEAMX), rice (Oryza sativa, ORYSA) and soybean (Glycine max, GLYMX). Crop species included in cool season tests were wheat (Triticum aestivum, TRZAW), barley (Hordeunm vulgare, HORVX) and oilseed rape (Brassica napus, BRSNS).
Tables 15 and 16 relate to pre-emergence and PPI tests respectively on warm season species. Table 17 relates to pre-emergence tests on cool season species.

XANST (cocklebur) = experiment: Pre-plant incorporated (PPI) herbicidal activity, warm season; type: in vivo, Xanthium strumarium; details: PPI application
Experimental: (§3) In another set of tests, the pre-plant incorporated (PPI) activity of compounds of this invention was evaluated on the same species as for the pre-emergence tests described above. In the PPI tests the following procedure, designed to simulate PPI application, was used.
as §1, §2

SINAR (wild mustard) = experiment: Pre-emergence herbicidal activity, cool season; type: in vivo, Sinapis arvensis; details: lowest tested rate with 80% or greater inhibition; rates 300, 100, 30, 10 g/ha; about 14 days
How it was run: (§4)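 GR80 values derive from percent inhibition relative to untreated plants, read roughly 14 days after sowing and pre-emergence soil-surface treatment (compound in 50:50 acetone/water; rates typically 10, 30, 100, 300 g/ha). Warm-season weeds grew at 30/21° C day/night, cool-season ones at 18/13° C; an asterisk marks activity without reaching 80% at the highest rate.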

SETFA (giant foxtail) = experiment: Pre-emergence herbicidal activity, warm season; type: in vivo, Setaria faberi; details: for Pre-emergence activity (GR80) SETFA: GR80 = lowest tested rate (300, 100, 30, 10 g/ha) with 80% or greater inhibition, approx. 14 days after treating, 30/21° C.
How it was run: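 Seeds sown in sterilised fertilised topsoil received surface-applied compound in 50:50 acetone/water, typically at 300, 100, 30 and 10 g/ha, then greenhouse-grown at 30/21° C (warm-season species) or 18/13° C (cool-season species). Percent inhibition versus untreated plants was scored at about 14 days, giving GR80; an asterisk marks activity short of 80% at the top rate.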

ALOMY (blackgrass) = experiment: Pre-plant incorporated (PPI) herbicidal activity, cool season; type: in vivo, Alopecurus myosuroides; details: for PPI activity GR80, ALOMY: pre-plant incorporated, lowest tested rate with 80% or greater inhibition, about 14 days
Experimental: as §3, §1, §2

[1] = test system: CHEAL (common lambsquarters); experiment: Pre-emergence herbicidal activity, warm season; type: in vivo, Chenopodium album; details: GR80 = lowest tested rate (300, 100, 30, 10 g/ha) with 80% or greater inhibition; approx. 14 days after treating; 30/21° C.
How it was run: as §4

DIGSA (large crabgrass) = experiment: Pre-emergence herbicidal activity, warm season; type: in vivo, Digitaria sanguinalis; details: for Pre-emergence activity (GR80) DIGSA: GR80 = lowest tested rate (300, 100, 30, 10 g/ha) with 80% or greater inhibition, approx. 14 days after treating, 30/21° C.
How it was run: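 Pre-emergence soil-surface spray; rates 300/100/30/10 g/ha; acetone:water 50:50 diluent. Warm-season species (PANMI, DIGSA) grown at 30/21 °C, cool-season species (ALOMY, POLCO) at 18/13 °C. Inhibition scored ~14 d after treatment versus untreated controls → GR80.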

[2] = weed, PPI application, 100 g/ha
[3] = weed, PPI application, 300 g/ha
[4] = weed, PPI application, 900 g/ha

CCN(CC)C(=O)n1cnc(S(=O)(=O)C(F)(F)Br)n1 [Example 1, 3-(bromodifluoromethylsulfonyl)-1-(N,N-diethylcarbamoyl)-1,2,4-triazole]
inhibition at 10 g/ha (soybean (GLYMX); Glycine max, 10 g/ha, read-out: Percent inhibition GLYMX): 0% | inhibition at 30 g/ha (soybean (GLYMX); Glycine max, 30 g/ha, read-out: Percent inhibition GLYMX): 0% | inhibition at 100 g/ha (soybean (GLYMX); Glycine max, 100 g/ha, read-out: Percent inhibition GLYMX): 0% | inhibition at 300 g/ha (soybean (GLYMX); Glycine max, 300 g/ha, read-out: Percent inhibition GLYMX): 0% | inhibition at 900 g/ha (soybean (GLYMX); Glycine max, 900 g/ha, read-out: Percent inhibition GLYMX): 40% | inhibition at 10 g/ha (XANST (cocklebur); Xanthium strumarium, 10 g/ha, read-out: Percent inhibition XANST): 0% | inhibition at 30 g/ha (XANST (cocklebur); Xanthium strumarium, 30 g/ha, read-out: Percent inhibition XANST): 0% | inhibition at 100 g/ha (XANST (cocklebur); Xanthium strumarium, 100 g/ha, read-out: Percent inhibition XANST): 0% | inhibition at 300 g/ha (XANST (cocklebur); Xanthium strumarium, 300 g/ha, read-out: Percent inhibition XANST): 0% | inhibition at 900 g/ha (XANST (cocklebur); Xanthium strumarium, 900 g/ha, read-out: Percent inhibition XANST): 0% | Pre-emergence activity GR80, SINAR (SINAR (wild mustard)): 100 g/ha | Pre-emergence activity (GR80) SETFA (SETFA (giant foxtail)): 100 g/ha | inhibition at 10 g/ha (SETFA (giant foxtail); Setaria faberi, pre-emergence application, 10 g/ha, read-out: Percent inhibition, weed SETFA): 0% | inhibition at 30 g/ha (SETFA (giant foxtail); Setaria faberi, pre-emergence application, 30 g/ha, read-out: Percent inhibition, weed SETFA): 0% | inhibition at 100 g/ha (SETFA (giant foxtail); Setaria faberi, pre-emergence application, 100 g/ha, read-out: Percent inhibition, weed SETFA): 40% | inhibition at 300 g/ha (SETFA (giant foxtail); Setaria faberi, pre-emergence application, 300 g/ha, read-out: Percent inhibition, weed SETFA): 100% | inhibition at 900 g/ha (SETFA (giant foxtail); Setaria faberi, pre-emergence application, 900 g/ha, read-out: Percent inhibition, weed SETFA): 100% | inhibition at 30 g/ha (ALOMY (blackgrass); Alopecurus myosuroides, weed, PPI application, 30 g/ha, read-out: Percent inhibition ALOMY): 80% | inhibition at 100 g/ha (ALOMY (blackgrass); Alopecurus myosuroides, weed, PPI application, 100 g/ha, read-out: Percent inhibition ALOMY): 99% | inhibition at 300 g/ha (ALOMY (blackgrass); Alopecurus myosuroides, weed, PPI application, 300 g/ha, read-out: Percent inhibition ALOMY): 100% | inhibition at 900 g/ha (ALOMY (blackgrass); Alopecurus myosuroides, weed, PPI application, 900 g/ha, read-out: Percent inhibition ALOMY): 100% | PPI activity GR80, ALOMY (ALOMY (blackgrass)): 100 g/ha | Pre-emergence activity (GR80) CHEAL [1]: 300 g/ha | inhibition at 10 g/ha (DIGSA (large crabgrass); Digitaria sanguinalis, pre-emergence application, 10 g/ha, read-out: Percent inhibition, weed DIGSA): 0% | inhibition at 30 g/ha (DIGSA (large crabgrass); Digitaria sanguinalis, pre-emergence application, 30 g/ha, read-out: Percent inhibition, weed DIGSA): 60% | inhibition at 100 g/ha (DIGSA (large crabgrass); Digitaria sanguinalis, pre-emergence application, 100 g/ha, read-out: Percent inhibition, weed DIGSA): 100% | inhibition at 300 g/ha (DIGSA (large crabgrass); Digitaria sanguinalis, pre-emergence application, 300 g/ha, read-out: Percent inhibition, weed DIGSA): 100% | inhibition at 900 g/ha (DIGSA (large crabgrass); Digitaria sanguinalis, pre-emergence application, 900 g/ha, read-out: Percent inhibition, weed DIGSA): 100% | Pre-emergence activity (GR80) DIGSA (DIGSA (large crabgrass)): 30 g/ha

CCN(CC)C(=O)n1cnc(S(=O)(=O)C(F)(F)F)n1 [Example 2]
Percent inhibition GLYMX (soybean (GLYMX); 30 g/ha): 0% | Percent inhibition GLYMX (soybean (GLYMX); 100 g/ha): 0% | Percent inhibition GLYMX (soybean (GLYMX); 300 g/ha): 10% | Percent inhibition GLYMX (soybean (GLYMX); 900 g/ha): 20% | Percent inhibition XANST (XANST (cocklebur); 30 g/ha): 0% | Percent inhibition XANST (XANST (cocklebur); 100 g/ha): 0% | Percent inhibition XANST (XANST (cocklebur); 300 g/ha): 0% | Percent inhibition XANST (XANST (cocklebur); 900 g/ha): 0% | Pre-emergence activity GR80, SINAR (SINAR (wild mustard)): 30 g/ha | Pre-emergence activity (GR80) SETFA (SETFA (giant foxtail)): 100 g/ha | Percent inhibition ALOMY (ALOMY (blackgrass); weed, PPI application, 30 g/ha): 50% | Percent inhibition ALOMY (ALOMY (blackgrass); [2]): 90% | Percent inhibition ALOMY (ALOMY (blackgrass); [3]): 100% | Percent inhibition ALOMY (ALOMY (blackgrass); [4]): 100% | Pre-emergence activity (GR80) CHEAL [1]: 100 g/ha | Pre-emergence activity (GR80) DIGSA (DIGSA (large crabgrass)): 300 g/ha

CCN(CC)C(=O)n1cnc(S(=O)(=O)C(F)(F)Cl)n1 [Example 3]
Percent inhibition GLYMX (soybean (GLYMX); 30 g/ha): 0% | Percent inhibition GLYMX (soybean (GLYMX); 100 g/ha): 0% | Percent inhibition GLYMX (soybean (GLYMX); 300 g/ha): 0% | Percent inhibition GLYMX (soybean (GLYMX); 900 g/ha): 15% | Percent inhibition XANST (XANST (cocklebur); 30 g/ha): 0% | Percent inhibition XANST (XANST (cocklebur); 100 g/ha): 0% | Percent inhibition XANST (XANST (cocklebur); 300 g/ha): 0% | Percent inhibition XANST (XANST (cocklebur); 900 g/ha): 60% | Pre-emergence activity GR80, SINAR (SINAR (wild mustard)): 300 g/ha | Pre-emergence activity (GR80) SETFA (SETFA (giant foxtail)): 100 g/ha | Percent inhibition ALOMY (ALOMY (blackgrass); weed, PPI application, 30 g/ha): 60% | Percent inhibition ALOMY (ALOMY (blackgrass); [2]): 90% | Percent inhibition ALOMY (ALOMY (blackgrass); [3]): 99% | Percent inhibition ALOMY (ALOMY (blackgrass); [4]): 100% | Pre-emergence activity (GR80) CHEAL [1]: 100 g/ha | Pre-emergence activity (GR80) DIGSA (DIGSA (large crabgrass)): 100 g/ha

CCN(CC)C(=O)n1cnc(S(=O)(=O)C(F)(F)C(=O)c2ccccc2)n1 [Example 6]
Pre-emergence activity GR80, SINAR (SINAR (wild mustard)): 300 g/ha | Pre-emergence activity (GR80) SETFA (SETFA (giant foxtail)): * (activity observed, at least at highest rate, but <80% inhibition) | PPI activity GR80, ALOMY (ALOMY (blackgrass)): 300 g/ha | Pre-emergence activity (GR80) CHEAL [1]: 300 g/ha | Pre-emergence activity (GR80) DIGSA (DIGSA (large crabgrass)): 300 g/ha
